Source: PMC4775225, “Bromodomain inhibition of the transcriptional coactivators CBP/EP300 as a therapeutic strategy to target the IRF4 network in multiple myeloma” (eLife, 2016)

Columns and labels:
[1] = biological target: T1, full length BRD4 ZsGreen fusion protein (Homo sapiens, UniProt O60885); assay: Bromodomain chromatin release assay, BRD4 (U2OS, high content imaging); assay type: cell-based; conditions: 2 hr, n = 2 biological replicates ± SEM, read-out: IC50 (μM), BRD4 chromatin release (EC50)
T1 construct: CBP: CBP-bromodomain/BRD9; BRD4: full length BRD4; expressed in transfected cells
Procedure: As described previously ([Huang et al., 2014]), this assay monitors the compound-dependent release and aggregation of a fusion protein consisting of a bromodomain and the fluorescent protein ZsGreen. For the BRD4 chromatin release assay, U2OS cells capable of inducibly expressing the full-length BRD4 protein in fusion with ZsG were generated using the pLVT3G/ZsGreen-BRD4/TO3G vector and maintained in blasticidin at 15 μg/ml. […] Therefore, the bromodomain (BD) of CBP was cloned into full length BRD9 (replacing the BRD9 BD) in frame with a ZsGreen fluorescent tag (ZsG). U2OS cells capable of inducibly expressing the ZsGreen-CBPBD fusion protein were generated by lentiviral delivery of the pLVT3G/BRD9-ZsG-CBPBD/TO3G vector, which contains both the inducible fusion protein and the tet transactivator. Cells were selected and maintained in the presence of 15 μg/ml blasticidin. 5000 cells/well were seeded in 384-well imaging plates in the presence of 2 μg/ml doxycycline to induce the expression of ZsG-fusion proteins. After 16 hr of incubation with doxycycline, fresh media containing serial dilution of compounds were added to the cells for 2 hr at 37°C. Cells were fixed with 4% paraformaldehyde (PFA) dissolved in PBS for 15 min at room temperature. Images of cells were acquired using ImageXpress Micro (Molecular Devices, Inc.; Sunnyvale, CA) and processed with the Transfluor Module of MetaXpress software. Average pits per cell values were obtained from four adjacent images in each well with two technical replicates for each compound concentration. Dose-response curves were generated by plotting the average pits per cell values at each dose and EC50 values were calculated by a four-parameter non-linear regression model in GraphPad Prism.

[2] = tested on: WDR9 bromodomain; assay: Differential scanning fluorimetry; assay type: binding; conditions: WDR9 4–8 μM, compound 20 μM
Procedure: (§1) Variable buffer compositions were used for the different bromodomain proteins with 12X SYPRO orange dye, 20 μM of the compounds or equivalent percentage of DMSO, and 4–8 µM of the indicated protein. […] The melting temperature (Tm) for each sample was determined using the ViiA7 software (version 1.2.2) and the ΔTm was calculated by subtracting the Tm of the control from the Tm of the compound treated sample.

[3] = tested on: BRD8 bromodomain; assay: Differential scanning fluorimetry; assay type: binding; conditions: BRD8 4–8 μM, compound 20 μM
Procedure: as §1

[4] = biological target: T2, TRIM24 bromodomain (Homo sapiens, UniProt O15164); assay: Differential scanning fluorimetry; assay type: binding; conditions: TRIM24 4–8 μM, compound 20 μM; read-out: DTm
T2 construct: Differential scanning fluorimetry was carried out with the indicated isolated bromodomains at 4–8 μM
Procedure: as §1

[5] = biological target: T3, BRG1 bromodomain (Homo sapiens, UniProt P51532); assay: Differential scanning fluorimetry; assay type: binding; conditions: BRG1 4–8 μM, compound 20 μM; read-out: DTm
T3 construct: Differential scanning fluorimetry was carried out with the indicated isolated bromodomains at 4–8 μM
Procedure: as §1

[6] = biological target: T4, TAF1 BD1 BD2 (Homo sapiens, UniProt P21675); assay: Differential scanning fluorimetry; assay type: binding; conditions: TAF1 BD1 BD2 4–8 μM, compound 20 μM; read-out: DTm
T4 construct: Differential scanning fluorimetry was carried out with the indicated isolated bromodomains at 4–8 μM
Procedure: as §1

[7] = biological target: T5, PCAF bromodomain (Homo sapiens, UniProt Q92831); assay: Differential scanning fluorimetry; assay type: binding; conditions: PCAF 4–8 μM, compound 20 μM; read-out: DTm
T5 construct: Differential scanning fluorimetry was carried out with the indicated isolated bromodomains at 4–8 μM
Procedure: as §1

[8] = biological target: T6, BRPF3 bromodomain (Homo sapiens, UniProt Q9ULD4); assay: Differential scanning fluorimetry; assay type: binding; conditions: BRPF3 4–8 μM, compound 20 μM; read-out: DTm
T6 construct: Differential scanning fluorimetry was carried out with the indicated isolated bromodomains at 4–8 μM
Procedure: as §1

[9] = biological target: T7, BRD7 bromodomain (Homo sapiens, UniProt Q9NPI1); assay: Differential scanning fluorimetry; assay type: binding; conditions: BRD7 4–8 μM, compound 20 μM; read-out: DTm
T7 construct: Differential scanning fluorimetry was carried out with the indicated isolated bromodomains at 4–8 μM
Procedure: as §1

[10] = biological target: T8, CECR2 bromodomain (Homo sapiens, UniProt Q9BXF3); assay: Differential scanning fluorimetry; assay type: binding; conditions: CECR2 4–8 μM, compound 20 μM; read-out: DTm
T8 construct: Differential scanning fluorimetry was carried out with the indicated isolated bromodomains at 4–8 μM
Procedure: as §1

[11] = biological target: T9, BRD9 bromodomain (Homo sapiens, UniProt Q9H8M2); assay: Differential scanning fluorimetry; assay type: binding; conditions: BRD9 4–8 μM, compound 20 μM; read-out: DTm
T9 construct: Differential scanning fluorimetry was carried out with the indicated isolated bromodomains at 4–8 μM
Procedure: as §1

[12] = biological target: T10, BPTF bromodomain (Homo sapiens, UniProt Q12830); assay: Differential scanning fluorimetry; assay type: binding; conditions: BPTF 4–8 μM, compound 20 μM; read-out: DTm
T10 construct: Differential scanning fluorimetry was carried out with the indicated isolated bromodomains at 4–8 μM
Procedure: as §1

[13] = biological target: GCN5 bromodomain (Homo sapiens, UniProt Q92830); assay: Differential scanning fluorimetry; assay type: binding; conditions: GCN5 4–8 μM, compound 20 μM; read-out: DTm
Procedure: as §1

[14] = biological target: T11, BRD1 bromodomain (Homo sapiens, UniProt O95696); assay: Differential scanning fluorimetry; assay type: binding; conditions: BRD1 4–8 μM, compound 20 μM; read-out: DTm
T11 construct: Differential scanning fluorimetry was carried out with the indicated isolated bromodomains at 4–8 μM
Procedure: as §1

[15] = biological target: T12, BRPF1 bromodomain (Homo sapiens, UniProt P55201); assay: Differential scanning fluorimetry; assay type: binding; conditions: BRPF1 4–8 μM, compound 20 μM; read-out: DTm
T12 construct: Differential scanning fluorimetry was carried out with the indicated isolated bromodomains at 4–8 μM
Procedure: as §1

[16] = biological target: T13, ASH1L bromodomain (Homo sapiens, UniProt Q9NR48); assay: Differential scanning fluorimetry; assay type: binding; conditions: ASH1L 4–8 μM, compound 20 μM; read-out: DTm
T13 construct: Differential scanning fluorimetry was carried out with the indicated isolated bromodomains at 4–8 μM
Procedure: as §1

[17] = biological target: T14, BAZ1A bromodomain (Homo sapiens, UniProt Q9NRL2); assay: Differential scanning fluorimetry; assay type: binding; conditions: BAZ1A 4–8 μM, compound 20 μM; read-out: DTm
T14 construct: Differential scanning fluorimetry was carried out with the indicated isolated bromodomains at 4–8 μM
Procedure: as §1

[18] = tested on: BRD4 bromodomain; assay: Differential scanning fluorimetry; assay type: binding; conditions: BRD4 4–8 μM, compound 20 μM
Procedure: as §1

[19] = biological target: T15, BAZ2B bromodomain (Homo sapiens, UniProt Q9UIF8); assay: Differential scanning fluorimetry; assay type: binding; conditions: BAZ2B 4–8 μM, compound 20 μM; read-out: DTm
T15 construct: Differential scanning fluorimetry was carried out with the indicated isolated bromodomains at 4–8 μM
Procedure: as §1

T14 sequence (Q9NRL2 1430-1533 limits assumed): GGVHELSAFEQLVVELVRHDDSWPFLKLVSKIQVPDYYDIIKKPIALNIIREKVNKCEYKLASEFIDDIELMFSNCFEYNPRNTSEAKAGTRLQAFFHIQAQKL
T2 sequence (O15164 899-1004 limits assumed): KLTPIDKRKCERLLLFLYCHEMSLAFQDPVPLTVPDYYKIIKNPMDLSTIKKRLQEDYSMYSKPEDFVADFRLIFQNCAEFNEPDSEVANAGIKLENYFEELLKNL
T8 sequence (Q9BXF3 434-538 limits assumed): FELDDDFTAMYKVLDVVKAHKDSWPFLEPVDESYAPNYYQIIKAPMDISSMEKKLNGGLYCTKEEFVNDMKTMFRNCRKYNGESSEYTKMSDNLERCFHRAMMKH
T6 sequence (Q9ULD4 589-693 limits assumed): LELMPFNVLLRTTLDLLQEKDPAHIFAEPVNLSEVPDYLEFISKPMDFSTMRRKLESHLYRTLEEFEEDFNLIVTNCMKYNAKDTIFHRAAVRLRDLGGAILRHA
T7 sequence (Q9NPI1 131-235 limits assumed): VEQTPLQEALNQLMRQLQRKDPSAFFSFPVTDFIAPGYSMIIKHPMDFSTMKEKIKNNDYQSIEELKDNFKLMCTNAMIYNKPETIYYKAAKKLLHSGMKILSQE
T4 sequence (P21675 1397-1628 limits assumed): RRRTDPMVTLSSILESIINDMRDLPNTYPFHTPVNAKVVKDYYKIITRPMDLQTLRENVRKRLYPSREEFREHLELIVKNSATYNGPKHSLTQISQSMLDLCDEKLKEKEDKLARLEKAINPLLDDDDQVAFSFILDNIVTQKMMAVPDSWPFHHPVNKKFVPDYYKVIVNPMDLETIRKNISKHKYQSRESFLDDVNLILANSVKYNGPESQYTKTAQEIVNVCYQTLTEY
Sequence of GCN5 bromodomain (Q92830 728-832 limits assumed): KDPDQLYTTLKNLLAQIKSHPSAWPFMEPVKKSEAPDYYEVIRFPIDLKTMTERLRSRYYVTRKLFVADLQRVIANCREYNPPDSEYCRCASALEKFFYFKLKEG
T15 sequence (Q9UIF8 2060-2164 limits assumed): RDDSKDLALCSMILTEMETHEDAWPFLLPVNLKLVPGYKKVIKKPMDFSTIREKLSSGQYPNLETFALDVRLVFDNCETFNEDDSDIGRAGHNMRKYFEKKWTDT
T9 sequence (Q9H8M2 136-240 limits assumed): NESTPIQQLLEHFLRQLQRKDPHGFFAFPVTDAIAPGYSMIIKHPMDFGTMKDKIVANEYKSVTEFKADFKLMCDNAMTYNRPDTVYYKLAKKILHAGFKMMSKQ
T11 sequence (O95696 562-666 limits assumed): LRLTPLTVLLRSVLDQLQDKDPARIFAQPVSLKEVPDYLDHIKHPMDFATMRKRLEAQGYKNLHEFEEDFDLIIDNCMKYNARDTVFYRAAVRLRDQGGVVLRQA
T3 sequence (P51532 1453-1564 limits assumed): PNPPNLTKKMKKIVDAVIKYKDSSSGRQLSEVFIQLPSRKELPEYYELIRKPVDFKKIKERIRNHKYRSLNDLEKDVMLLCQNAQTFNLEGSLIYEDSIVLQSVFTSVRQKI
T12 sequence (P55201 628-732 limits assumed): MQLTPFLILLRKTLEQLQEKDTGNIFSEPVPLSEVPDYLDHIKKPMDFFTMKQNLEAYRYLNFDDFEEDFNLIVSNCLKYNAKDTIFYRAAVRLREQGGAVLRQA
T5 sequence (Q92831 723-827 limits assumed): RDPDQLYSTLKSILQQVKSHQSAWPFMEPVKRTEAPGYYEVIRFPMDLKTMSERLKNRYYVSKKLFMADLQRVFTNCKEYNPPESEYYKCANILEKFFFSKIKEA

CCC(=O)N1CCOc2c(cc(-c3ccc(OC)c(OC)c3)cc2OC[C@H]2CCCN(C)C2)C1 [I-CBP112]
EC50 [1]: > 20 µM | DTm [2]: 0.04 °C | DTm [3]: 0.88 °C | ΔTm at 20 µM [4]: 0.32 °C | ΔTm at 20 µM [5]: 0.38 °C | ΔTm at 20 µM [6]: 0.12 °C | ΔTm at 20 µM [7]: -0.08 °C | ΔTm at 20 µM [8]: 0.75 °C | ΔTm at 20 µM [9]: 0.44 °C | ΔTm at 20 µM [10]: 1.46 °C | ΔTm at 20 µM [11]: 0.37 °C | ΔTm at 20 µM [12]: 0.93 °C | ΔTm at 20 µM [13]: 0.14 °C | ΔTm at 20 µM [14]: -0.44 °C | ΔTm at 20 µM [15]: 0.11 °C | ΔTm at 20 µM [16]: 0.04 °C | ΔTm at 20 µM [17]: 0.41 °C | DTm [18]: 2.12 °C | ΔTm at 20 µM [19]: 0.28 °C

COc1ccc(CCc2nc3cc(-c4c(C)noc4C)ccc3n2C[C@H](C)N2CCOCC2)cc1Cl [SGC-CBP30]
EC50 [1]: 18.7 ± 1.2 µM | DTm [2]: -0.08 °C | DTm [3]: 0.76 °C | ΔTm at 20 µM [4]: 0.43 °C | ΔTm at 20 µM [5]: 0.27 °C | ΔTm at 20 µM [6]: 0.12 °C | ΔTm at 20 µM [7]: -0.08 °C | ΔTm at 20 µM [8]: -0.18 °C | ΔTm at 20 µM [9]: 0.5 °C | ΔTm at 20 µM [10]: 0.76 °C | ΔTm at 20 µM [11]: 0.37 °C | ΔTm at 20 µM [12]: 0.69 °C | ΔTm at 20 µM [13]: -0.09 °C | ΔTm at 20 µM [14]: 0.26 °C | ΔTm at 20 µM [15]: 0.11 °C | ΔTm at 20 µM [16]: 0.04 °C | ΔTm at 20 µM [17]: 0.18 °C | DTm [18]: 2.01 °C | ΔTm at 20 µM [19]: -0.06 °C
